Test results from US20240391930A1, “SPIROCYCLIC BICYCLIC MODULATORS OF CHOLESTEROL BIOSYNTHESIS AND THEIR USE FOR PROMOTING REMYELINATION” (GENENTECH, INC., priority 2021, published 2024).

Legend:
[1] = biological target: T1, human emopamil binding protein and human 7-dehydrocholesterol reductase (hEBP-DHCR7) (Homo sapiens, UniProt Q15125); experiment: hEBP-DHCR7 radioligand filtration binding assay; conditions: membranes of HEK293 co-expressing hEBP and DHCR7; [3H] 2-thia-6-azaspiro[3.4]octane radioligand; 8 doses 0.06 to 5000 nM
T1 construct: expressed in transfected cells; host or cells: HEK 293 cells, transient transfection with 2 DNA constructs
T1 sequence (Q15125 whole entry): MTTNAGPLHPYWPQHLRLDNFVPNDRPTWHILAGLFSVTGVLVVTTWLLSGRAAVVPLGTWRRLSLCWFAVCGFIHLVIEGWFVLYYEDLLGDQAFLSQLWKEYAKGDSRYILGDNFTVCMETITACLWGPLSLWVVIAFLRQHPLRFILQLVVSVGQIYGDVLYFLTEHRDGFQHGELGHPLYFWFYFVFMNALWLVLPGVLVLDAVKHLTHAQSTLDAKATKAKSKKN
In short: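 Membranes from HEK293 cells transiently co-expressing human EBP and DHCR7 (10 μg/well) incubated 3 h at 22 °C with tritiated 2-thia-6-azaspiro[3.4]octane dioxide radioligand (25 nM stock addition) and compound at 0.06–5000 nM final. Bound ligand collected on PEI-treated GF/B filters, scintillation-counted. IC50 by Hill fit; reported as Ki.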

[2] = biological target: T2, human EBP (Homo sapiens, UniProt Q15125); experiment: hEBP SPA competition binding assay ([3H]-Ifenprodil)
T2 construct: expressed in transfected cells; host or cells: human embryonic kidney 293 cells
T2 sequence (Q15125 whole entry): as above
Procedure: Membrane preparation: To examine compound binding affinity to EBP, human EBP was overexpressed in human embryonic kidney 293 cells. Cell pellet was lysed in 10 times weight binding buffer (50 mM Tris, 5 mM MgCl2, 0.1 mM EDTA, lx protease inhibitor cocktail, pH 7.5) on ice by using a dounce homogenizer. The solution was centrifuged at 25,000 g for 50 min at 4° C. The membrane pellet was re-suspended in binding buffer and run through a 25⅝ gauge needle. After checking the concentration by Bradford assay, the whole cell membrane solution was adjusted to 20 mg/mL and stored at −80° C.
This binding solution was centrifuged at 400 g for 5 minutes to collect the bead/membrane mixture. After re-suspending the pellet in binding buffer at the same calculated volume with 0.01% BSA (Sigma A1933), the bead/membrane mixture was added in 384-well low-binding surface plate (PerkinElmer Cat #6057480) at 25 µl/well. Radioligand at different concentrations with and without the non-radio-labeled same ligand 5 uM (for nonspecific and total signal, respectively) was added to bring final volume to 50 µl/well with DMSO concentration at 0.1%. At equilibrium (3 hours after ligand addition), radiometric signal CPM was counted by using a Microbeta2 microplate counter (Perkinelmer).
A pre-incubated bead/membrane mixture was added in compound plate at 0.3 mg beads and […] membrane per well. […] At equilibrium (3 hours after ligand addition), radiometric signal was counted as described above. The percentage inhibition of compound at each testing concentration was calculated by normalizing each condition's CPM readout to full block (5 uM non-radiolabeled ligand) and non-block (DMSO) control conditions. Compound binding inhibition IC50 was determined by nonlinear regression fitting of percentage inhibition plot against compound concentration. Compound Ki was calculated from the equation Ki=IC50/(1+[L]/Kd), which [L] was radioligand concentration used in assay. All tests had N bigger or equal to 2.

Compound	Ki [1]	Ki [2]
CC(C)n1nc(-c2cncc(C(F)(F)F)c2)nc1[C@H]1[C@@H]2C[C@H](N3CCC4(C3)CS(=O)(=O)C4)C[C@@H]21 (single isomer, unassigned) [Compound 17]	0.116 µM	0.067 µM
CC(C)n1nc(-c2ccc(C(F)(F)F)cc2)cc1[C@H]1[C@@H]2C[C@H](N3CCC4(C3)CS(=O)(=O)C4)C[C@@H]21 [Compound 5, 6-((1R,3r,5S,6r)-6-(1-Isopropyl-3-(4-(trifluoromethyl)phenyl)-1H-pyrazol-5-yl)bicyclo[3.1.0]hexan-3-yl)-2-thia-6-azaspiro[3.4]octane 2,2-dioxide]	0.043 µM	0.022 µM
CCn1nc(-c2cncc(C(F)(F)F)c2)cc1[C@H]1[C@@H]2C[C@@H](N3CCC4(C3)CS(=O)(=O)C4)C[C@@H]21 (single isomer, unassigned) [Compound 24]	0.0199 µM	0.03 µM
CC(C)n1nc(-c2ccnc(C(F)(F)F)c2)cc1[C@H]1[C@@H]2C[C@@H](N3CCC4(C3)CS(=O)(=O)C4)C[C@@H]21 (single isomer, unassigned) [Compound 18]	0.017 µM	0.03 µM
CC(C)n1nc(-c2ccnc(C(F)(F)F)c2)cc1[C@H]1[C@@H]2C[C@H](N3CCC4(C3)CS(=O)(=O)C4)C[C@@H]21 (single isomer, unassigned) [Compound 19]	0.0096 µM	0.016 µM
CC(C)n1nc(-c2cncc(C(F)(F)F)c2)nc1[C@H]1[C@@H]2C[C@@H](N3CCC4(C3)CS(=O)(=O)C4)C[C@@H]21 (single isomer, unassigned) [Compound 16]	0.021 µM	0.02 µM
CC(C)n1nc(-c2cc(C(F)(F)F)ccn2)cc1[C@H]1[C@@H]2C[C@@H](N3CCC4(C3)CS(=O)(=O)C4)C[C@@H]21 (single isomer, unassigned) [Compound 20]	0.0489 µM	0.062 µM
CC(C)n1nc(-c2cncc(C(F)(F)F)c2)cc1[C@H]1[C@@H]2C[C@H](N3CC4(C3)CS(=O)(=O)C4)C[C@@H]21 (single isomer, unassigned) [Compound 99*]	0.048 µM	0.058 µM
CC(C)n1nc(-c2cnc(C(F)(F)F)nc2)cc1[C@H]1[C@@H]2C[C@H](N3CCC4(C3)CS(=O)(=O)C4)C[C@@H]21 [Compound 6, 6-((1R,3r,5S,6r)-6-(1-Isopropyl-3-(2-(trifluoromethyl)pyrimidin-5-yl)-1H-pyrazol-5-yl)bicyclo[3.1.0]hexan-3-yl)-2-thia-6-azaspiro[3.4]octane 2,2-dioxide]	0.0181 µM	0.019 µM
CC(C)n1nc(-c2ccnc(C(F)(F)F)n2)cc1[C@H]1[C@@H]2C[C@H](N3CCC4(C3)CS(=O)(=O)C4)C[C@@H]21 [Compound 15, 6-((1R,3r,5S,6r)-6-(1-Isopropyl-3-(2-(trifluoromethyl)pyrimidin-4-yl)-1H-pyrazol-5-yl)bicyclo[3.1.0]hexan-3-yl)-2-thia-6-azaspiro[3.4]octane 2,2-dioxide]	0.02 µM	0.019 µM
CC(C)n1nc(-c2cccc(C(F)(F)F)n2)cc1[C@H]1[C@@H]2C[C@H](N3CCC4(CC3)CS(=O)(=O)C4)C[C@@H]21 (single isomer, unassigned) [Compound 48]	0.0125 µM	0.015 µM
CC(C)n1nc(-c2cc(C(F)(F)F)ccn2)cc1[C@H]1[C@@H]2C[C@H](N3CCC4(C3)CS(=O)(=O)C4)C[C@@H]21 (single isomer, unassigned) [Compound 21]	0.0171 µM	0.043 µM
CC(C)n1nc(-c2cccc(C(F)(F)F)c2)cc1[C@H]1[C@@H]2C[C@@H](N3CCC4(C3)CS(=O)(=O)C4)C[C@@H]21 (single isomer, unassigned) [Compound 2]	0.00591 µM	0.038 µM
CC(C)n1nc(-c2cncc(C(F)(F)F)c2)cc1[C@H]1[C@@H]2C[C@@H](N3CCC4(CC3)CS(=O)(=O)C4)C[C@@H]21 (single isomer, unassigned) [Compound 38]	0.041 µM	0.026 µM
CC(C)n1nc(C(F)(F)F)cc1[C@H]1[C@@H]2C[C@@H](N3CCC4(C3)CS(=O)(=O)C4)C[C@@H]21 (single isomer, unassigned) [Compound 22]	0.0124 µM	0.03 µM
CC(C)n1nc(C(F)(F)F)cc1[C@H]1[C@@H]2C[C@H](N3CCC4(C3)CS(=O)(=O)C4)C[C@@H]21 (single isomer, unassigned) [Compound 23]	0.0124 µM	0.013 µM
C=C(c1cc([C@H]2[C@@H]3C[C@H](N4CCC5(C4)CS(=O)(=O)C5)C[C@@H]32)n(C(C)C)n1)C(F)(F)F [Compound 31, 6-((1R,3r,5S,6r)-6-(1-Isopropyl-3-(3,3,3-trifluoroprop-1-en-2-yl)-1H-pyrazol-5-yl)bicyclo[3.1.0]hexan-3-yl)-2-thia-6-azaspiro[3.4]octane 2,2-dioxide]	0.0192 µM	0.037 µM
CC(C)n1nc(-c2cncc(C(F)(F)F)c2)cc1[C@H]1[C@@H]2C[C@@H](N3CC4(C3)CS(=O)(=O)C4)C[C@@H]21 (single isomer, unassigned) [Compound 98*]	0.054 µM	0.051 µM
CCn1nc(-c2cncc(C(F)(F)F)c2)cc1[C@H]1[C@@H]2C[C@H](N3CCC4(C3)CS(=O)(=O)C4)C[C@@H]21 (single isomer, unassigned) [Compound 25]	0.0146 µM	0.026 µM
CC(C)n1nc(-c2ccnc(C(F)(F)F)n2)cc1[C@H]1[C@@H]2C[C@@H](N3CCC4(C3)CS(=O)(=O)C4)C[C@@H]21 [Compound 28, 6-((1R,3s,5S,6r)-6-(1-isopropyl-3-(2-(trifluoromethyl)pyrimidin-4-yl)-1H-pyrazol-5-yl)bicyclo[3.1.0]hexan-3-yl)-2-thia-6-azaspiro[3.4]octane 2,2-dioxide]	0.0246 µM	0.022 µM

The remaining lines, values ahead:

Ki [1]	Ki [2]	Compound
0.0649 µM	0.024 µM	CC(C)n1nc(-c2ccnc(C(F)(F)F)n2)cc1[C@H]1[C@@H]2C[C@@H](N3CCC4(CC3)CS(=O)(=O)C4)C[C@@H]21 (single isomer, unassigned) [Compound 49]
0.175 µM	0.019 µM	CC(C)n1nc(-c2cccc(C(F)(F)F)n2)cc1[C@H]1[C@@H]2C[C@@H](N3CCC4(CC3)CS(=O)(=O)C4)C[C@@H]21 (single isomer, unassigned) [Compound 47]
0.0135 µM	0.023 µM	CC(C)n1nc(C2(C(F)(F)F)CC2)cc1[C@H]1[C@@H]2C[C@H](N3CCC4(C3)CS(=O)(=O)C4)C[C@@H]21 [Compound 32, 6-((1R,3r,5S,6r)-6-(1-Isopropyl-3-(1-(trifluoromethyl)cyclopropyl)-1H-pyrazol-5-yl)bicyclo[3.1.0]hexan-3-yl)-2-thia-6-azaspiro[3.4]octane 2,2-dioxide]
0.0145 µM	0.031 µM	CC(C)n1nc(-c2cncc(C(F)(F)F)c2)cc1[C@H]1[C@@H]2C[C@H](N3CCC4(C3)CS(=O)(=O)C4)C[C@@H]21 (single isomer, unassigned) [Compound 4]
0.0184 µM	0.026 µM	CC(C)n1nc(-c2cncc(C(F)(F)F)c2)cc1[C@H]1[C@@H]2C[C@H](N3CCC4(CC3)CS(=O)(=O)C4)C[C@@H]21 (single isomer, unassigned) [Compound 40]
0.0132 µM	0.036 µM	CC(C)n1nc(-c2cccc(C(F)(F)F)n2)cc1[C@H]1[C@@H]2C[C@@H](N3CCC4(C3)CS(=O)(=O)C4)C[C@@H]21 (single isomer, unassigned) [Compound 11]
0.049 µM	0.018 µM	CC(C)n1nc(-c2ccnc(C(F)(F)F)n2)cc1[C@H]1[C@@H]2C[C@H](N3CCC4(CC3)CS(=O)(=O)C4)C[C@@H]21 (single isomer, unassigned) [Compound 50]
0.0201 µM	0.026 µM	CC(C)n1nc(-c2cncc(C(F)(F)F)c2)cc1[C@H]1[C@@H]2C[C@H](N3CC[C@@]4(CCS(=O)(=O)C4)C3)C[C@@H]21 (single isomer, unassigned) [Compound 9*]
0.012 µM	0.017 µM	CC(C)n1nc(-c2cccc(C(F)(F)F)n2)cc1[C@H]1[C@@H]2C[C@H](N3CCC4(C3)CS(=O)(=O)C4)C[C@@H]21 (single isomer, unassigned) [Compound 12]
